Reference: patent US7879861B2, “Combi-molecules having EGFR and DNA targeting properties” (priority 2005, dated 2011)
Like-named read-outs stand apart in the source and are kept apart here.

What was measured:
[1] = biological target: T1, EGFR (Homo sapiens, UniProt P00533); assay: EGFR kinase assay (ELISA, PGT substrate phosphorylation); format: biochemical; design: endogenous in cells; details: 10 min exposure; read-out: IC50, EGFR inhibitory potency, purified enzyme assay
[2] = Degradation in serum at 37° C. by HPLC; format: in vitro ADME; details: 24 h incubation in serum at 37° C.; release of 2 eq. of amine taken for 100%
Experimental: (§1) The degradation of double-arm combi-triazenes 5-9 has been investigated by HPLC. […] The rates of decomposition of bis-triazenes 7, 8 and 9 were measured by fluorescence spectroscopy by monitoring the formation of 1 (excitation: 279 and emission: 451). The determined half-lives ranged from 2 h for 7 and 8 to 3 h 20 min for 9.

[3] = system: DU145; assay: Growth inhibition in androgen independent prostate cancer cell line; details: Homo sapiens
[4] = system: LNCaPerbB2; assay: 6 day growth inhibition assay, LNCaP panel; details: Homo sapiens, 144 h, read-out: IC50, LNCaPerbB2 transfected cell line
[5] = Rate of decomposition by fluorescence spectroscopy (formation of amine 1); format: physicochemical; details: excitation 279, emission 451
Experimental: as §1

[6] = system: NIH3T3; assay: Growth inhibition in isogenic NIH3T3 panel (double-arm combi-triazenes); format: cell-based; details: Mus musculus, FIG. 14
[7] = system: NIH3T3/neu; assay: as above; format: cell-based, mouse; details: for IC50: Mus musculus, NIH3T3, FIG. 14; for fold selectivity for neu transfectant: vs NIH3T3
[8] = system: NIH3T3/Her14; assay: as above; format: cell-based, mouse; details: for IC50: Mus musculus, NIH3T3, FIG. 14; for fold selectivity for EGFR transfectant: vs NIH3T3
[9] = system: MDA-MB-468 cells; assay: Reversibility of antiproliferative effect, SRB assay; format: cell-based, human
Experimental: (§2) In vitro growth inhibition assay: To study the effect of the compounds on growth factor stimulated-proliferation, cells were grown to 70% of confluence in 48-well plates. […] Cell growth was measured using the sulforhodamine B (SRB) assay (24). Briefly, following drug treatment, cells were fixed using 50 μl of cold trichloroacetic acid (50%) for 60 min at 4° C., washed five times with tap water, and stained for 30 min at room temperature with SRB (0.4%) and dissolved in acetic acid (0.5%). The plates were rinsed five times with 1% acetic acid and allowed to air dry. The resulting colored residue was dissolved in 200 μl of Tris base (10 mM), and the optical density read for each well at 450 nm using a Bio-Rad microplate reader (model 2550). […] Cell growth was measured using SRB assay as described previously.

[10] = biological target: T2, NIH3T3neu (UniProt P04626, cells depend on it, species not given); assay: Blockade of serum-stimulated growth, SRB assay (Table 1); format: cell-based, mouse; details: serum-stimulated growth; read-out: Inhibition of growth stimulation of NIH3T3neu
T2 construct: other: serum-stimulated growth
Experimental: (§3) In vitro growth inhibition assay: To study the effect of the compounds on growth factor stimulated-proliferation, cells were grown to 70% of confluence in 48-well plates. They were subsequently washed twice with PBS, incubated in serum-free medium for 18 h and exposed to each drug+growth factors (EGF, TGFα, PDGF or serum) for 72 h. Cell growth was measured using the sulforhodamine B (SRB) assay (24). Briefly, following drug treatment, cells were fixed using 50 μl of cold trichloroacetic acid (50%) for 60 min at 4° C., washed five times with tap water, and stained for 30 min at room temperature with SRB (0.4%) and dissolved in acetic acid (0.5%). The plates were rinsed five times with 1% acetic acid and allowed to air dry. The resulting colored residue was dissolved in 200 μl of Tris base (10 mM), and the optical density read for each well at 450 nm using a Bio-Rad microplate reader (model 2550). […] Cell growth was measured using SRB assay as described previously.

[11] = biological target: T1, EGFR; assay: EGFR kinase assay (ELISA, PGT substrate phosphorylation); format: biochemical; design: endogenous in cells; details: Table 1, inhibition of EGFR kinase; read-out: EGFR Binding
Experimental: Kinase assays: The EGFR kinase assay is similar to the one described in previously published procedures (19, 20). Nunc Maxisorp 96-well plates were incubated overnight at 37° C. with 100 μl/well of 0.25 mg/ml poly (L-glutamic acid-L-tyrosine, 4:1) PGT in PBS. Excess PGT was removed and the plate was washed three times with wash buffer (Tween 20 (0.1%) in PBS). […] The compound was added and phosphorylation initiated by the addition of ATP 50 μM. After 8 min at room temperature with constant shaking, the reaction was terminated by aspiration of the reaction mixture and rinsing the plate four times with wash buffer. […] Antibody was removed by aspiration, and the plate washed four times with wash buffer.

[12] = system: A431; assay: Inhibition of basal growth (Table 1); format: cell-based; details: Homo sapiens, A-431
Experimental: as §3

[13] = system: NIH3T3; assay: Blockade of serum-stimulated growth, SRB assay (Table 1); format: cell-based; details: Mus musculus, read-out: Inhibition of growth stimulation of NIH3T3
Experimental: as §3

[14] = system: NIH3T3neu; assay: as above; format: cell-based, mouse; details: FIG. 12, 72 h
Experimental: as §3

[15] = system: MDA-MB-468 cells; assay: Annexin V binding (apoptosis), flow cytometry; format: cell-based, human; details: for levels of apoptosis: 5 μM, 24, 48 and 72 h
Experimental: Annexin V Binding: Cells were grown in 6-well plates until confluence and then incubated with the compounds for 24 h, 48 and 72 h. The cells were then harvested, washed twice with PBS, and centrifuged. Cells (10^5) were treated with annexin V-FITC and propidium iodide (PI) using the Apoptosis Detection Kit (BD Bioscience Pharmingen, USA) and the supplier's protocol. Annexin V-FITC and PI binding were analyzed by flow cytometry. Data were collected using logarithmic amplification of both the FL1 (FITC) and FL2 (PI) channels. Quadrant analysis of co-ordinate dot plots was performed with CellQuest software. Unstained cells were used to adjust the photomultiplier voltage and for compensation setting adjustment in order to eliminate spectral overlap between the FL1 and FL2 signals.

[16] = system: MDA-MB-453 cells; assay: Reversibility of antiproliferative effect, SRB assay; format: cell-based, human
Experimental: as §2

[17] = Water solubility; format: physicochemical
[18] = system: human breast carcinoma MDA-MB-468; assay: In vivo efficacy, MDA-MB-468 implanted in the mammary fat pad; design: species or system SCID mice
Experimental: In vivo studies: SCID mice were maintained as per McGill animal safety protocols. In a preliminary model, SCID mice housed in filtered cages were implanted subcutaneously (s.c.) with the human breast carcinoma MDA-MB-468 and treatment began when the tumors were palpable (8 mice/group). […] The tumor burdens were measured with a caliper and mice were weighed twice weekly. The study was later repeated with the MDA-MB-468 cells implanted in the mammary fat pad, a model that better mimics human breast carcinoma.

[19] = DU-145, 144 h, read-out: IC50, 6 day continued growth inhibition assay
[20] = DU-145, read-out: IC50, growth inhibition in DU145

T1 sequence (P00533 25-1210): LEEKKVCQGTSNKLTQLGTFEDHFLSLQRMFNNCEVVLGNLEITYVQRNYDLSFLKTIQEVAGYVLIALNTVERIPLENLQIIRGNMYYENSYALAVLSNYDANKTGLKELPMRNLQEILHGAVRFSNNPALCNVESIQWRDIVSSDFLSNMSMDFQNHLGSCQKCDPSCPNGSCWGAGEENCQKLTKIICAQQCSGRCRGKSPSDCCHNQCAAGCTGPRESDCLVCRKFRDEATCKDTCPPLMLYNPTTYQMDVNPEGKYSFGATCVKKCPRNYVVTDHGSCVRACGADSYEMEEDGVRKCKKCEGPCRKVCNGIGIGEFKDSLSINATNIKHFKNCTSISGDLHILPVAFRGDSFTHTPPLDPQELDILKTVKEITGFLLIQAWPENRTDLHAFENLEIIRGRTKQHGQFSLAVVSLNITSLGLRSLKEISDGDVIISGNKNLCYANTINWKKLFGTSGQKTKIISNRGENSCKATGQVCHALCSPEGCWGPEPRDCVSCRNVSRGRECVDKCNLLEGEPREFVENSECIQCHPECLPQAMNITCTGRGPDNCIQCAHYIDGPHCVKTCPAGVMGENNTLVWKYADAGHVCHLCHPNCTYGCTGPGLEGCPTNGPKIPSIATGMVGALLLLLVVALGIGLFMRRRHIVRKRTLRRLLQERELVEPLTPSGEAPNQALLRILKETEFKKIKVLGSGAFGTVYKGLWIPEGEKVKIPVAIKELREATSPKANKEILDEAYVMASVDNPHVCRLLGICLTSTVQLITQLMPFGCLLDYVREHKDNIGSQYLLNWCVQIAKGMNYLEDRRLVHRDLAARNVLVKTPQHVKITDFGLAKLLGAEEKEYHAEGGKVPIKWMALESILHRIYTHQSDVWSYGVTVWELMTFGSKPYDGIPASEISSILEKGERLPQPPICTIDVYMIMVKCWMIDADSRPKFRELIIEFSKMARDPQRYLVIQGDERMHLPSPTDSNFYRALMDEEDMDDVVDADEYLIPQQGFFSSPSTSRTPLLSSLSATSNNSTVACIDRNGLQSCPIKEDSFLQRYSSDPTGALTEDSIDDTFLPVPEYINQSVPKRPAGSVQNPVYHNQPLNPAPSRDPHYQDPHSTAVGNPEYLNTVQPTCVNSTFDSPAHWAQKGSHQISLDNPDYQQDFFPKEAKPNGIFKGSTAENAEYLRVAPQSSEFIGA

For `Clc1cccc(Nc2ncnc3ccc(N=NNCc4ccccc4CNN=Nc4ccc5ncnc(Nc6cccc(Cl)c6)c5c4)cc23)c1` [Double-arm combi-triazene 5], the IC50 [1] was 7 µM, the “release of parent amine 1” value [2] was “negligible quantities” and the IC50 [3, 19] was 12 µM. For the same molecule, the IC50 [4] was 18 µM.
Work on `Clc1cccc(Nc2ncnc3ccc(N=NNCc4ccc(CNN=Nc5ccc6ncnc(Nc7cccc(Cl)c7)c6c5)cc4)cc23)c1` [Double-arm combi-triazene 6] yielded an IC50 [1] of over 10 µM, an IC50 [3, 19] of 35 µM and an IC50 [4] of 37 µM.
Molecule `Clc1cccc(Nc2ncnc3ccc(N=NNCCN4CCN(CCNN=Nc5ccc6ncnc(Nc7cccc(Cl)c7)c6c5)CC4)cc23)c1` [Double-arm combi-triazene 7] has an IC50 [1] of 1 µM, a half-life [5] of 2 h and an IC50 [3, 19] of 1.8 µM. For the same molecule, the IC50 [3, 20] was 2.8 µM, the IC50 [6] was 44 µM and the IC50 [4] was 9 µM. The IC50 [7] was 0.4 µM, the “fold selectivity for neu transfectant” value [7] was 110 fold and the IC50 [8] was 0.5 µM. For the same molecule, the “fold selectivity for EGFR transfectant” value [8] was 88 fold.
In the case of `CN(CCNN=Nc1ccc2ncnc(Nc3cccc(Cl)c3)c2c1)CCN(C)CCNN=Nc1ccc2ncnc(Nc3cccc(Cl)c3)c2c1` [Double-arm combi-triazene 8], the IC50 [1] is reported as 0.05 µM, the half-life [5] is reported as 2 h and the IC50 [3, 19] is reported as 3.2 µM. The IC50 [3, 20] was 1 µM, the IC50 [6] was 0.1 µM and the IC50 [4] was 6 µM. It also gave an IC50 [7] of 0.02 µM, an IC50 [8] of 0.02 µM and a fold more active ([8]; compared with double-arm combi-triazene 9) of 20 fold.
`CN(CCNN=Nc1ccc2ncnc(Nc3cccc(Cl)c3)c2c1)CCNN=Nc1ccc2ncnc(Nc3cccc(Cl)c3)c2c1` [Double-arm combi-triazene 9] gave an IC50 [1] of 0.003 µM, an IC50 [3, 19] of 2.3 µM and an IC50 [3, 20] of 2.6 µM. The IC50 [6] was 2.3 µM, the IC50 [4] was 11 µM and the “fold selectivity for neu transfectant” value [7] was 7 fold. The IC50 [8] was 0.5 µM and the “fold selectivity for EGFR transfectant” value [8] was 4 fold.
With `Nc1ccc2ncnc(Nc3cccc(Cl)c3)c2c1` [FD105, reference compound] the IC50 ([9]; MDA-MB-468, SRB, read-out: IC50, growth inhibition, 120 h continuous exposure) was 23.6 µM and the IC50 ([9]; read-out: IC50, growth inhibition, 2 h exposure followed by 120 h recovery, MDA-MB-468, SRB) was 192 µM.
`CN(CCN(C)N=Nc1ccc2ncnc(Nc3cccc(Cl)c3)c2c1)CCN(C)N=Nc1ccc2ncnc(Nc3cccc(Cl)c3)c2c1` [JCF29] gave a GI50 [10] of 43.3 µM, an IC50 [11] of 0.036 µM and an IC50 [12] of 38.1 µM. For the same molecule, the IC50 [13] was 186 µM.
Molecule `CN(CCN(C)N=Nc1ccc2ncnc(Nc3cccc(Cl)c3)c2c1)N=Nc1ccc2ncnc(Nc3cccc(Cl)c3)c2c1` [JFC16] has a GI50 [10] of 23.1 µM, an IC50 [11] of 0.29 µM and an IC50 [13] of 137 µM.
`CN(C)CCN(C)N=Nc1ccc2ncnc(Nc3cccc(Cl)c3)c2c1` [JFC30] gave a GI50 [10] of 1.25 µM, an IC50 [11] of 0.014 µM and an IC50 [12] of 18.9 µM. It also gave an IC50 [13] of 13.9 µM.
In the case of `CN(CCOCCN(C)N=Nc1ccc2ncnc(Nc3cccc(Cl)c3)c2c1)N=Nc1ccc2ncnc(Nc3cccc(Cl)c3)c2c1` [JFC31], the GI50 [10] is reported as under 0.75 µM, the “selectivity for NIH3T3 HER2 transfected cells in isogenic model” value [14] is reported as “significant selectivity” and the IC50 [11] is reported as 0.003 µM. For the same molecule, the IC50 [12] was 4.79 µM and the IC50 [13] was 4.65 µM.
For `COCCN(C)N=Nc1ccc2ncnc(Nc3cccc(Cl)c3)c2c1` [JFC32], the GI50 [10] was 1.65 µM, the IC50 [11] was 0.013 µM and the IC50 [12] was 23.4 µM. The IC50 [13] was 112 µM.
In the case of `C=CC(=O)Nc1ccc2ncnc(Nc3cccc(Br)c3)c2c1` [PD168393, reference compound], the levels of apoptosis [15] is reported as “barely detectable levels of apoptosis”, the IC50 ([16]; Homo sapiens, MDA-MB-453, 120 h, MDA-MB-453, SRB, read-out: IC50, growth inhibition, 120 h continuous exposure) is reported as 1.81 µM and the IC50 ([16]; Homo sapiens, MDA-MB-453, read-out: IC50, growth inhibition, 2 h exposure followed by 120 h recovery, MDA-MB-453, SRB) is reported as 10.3 µM. The IC50 ([16]; MDA-MB-453, SRB, read-out: IC50, growth inhibition, 120 h continuous exposure) was 1.71 µM and the IC50 ([16]; read-out: IC50, growth inhibition, 2 h exposure followed by 120 h recovery, MDA-MB-453, SRB) was 11.5 µM.
For `Nc1ccc2ncnc(Nc3cccc(Br)c3)c2c1` [ZR01, reference compound], the levels of apoptosis [15] was “barely detectable levels of apoptosis”.
With `ClCCNc1ccc2ncnc(Nc3cccc(Cl)c3)c2c1` [ZR2003] the “concentration at which detectable levels of apoptosis start” value [15] was 12 µM, the “cell death by apoptosis compared with FD105” value ([15]; 12 μM, 48 h) was “significantly higher levels of cell death by apoptosis” and the “water solubility (in words)” value [17] was “more hydro-soluble”. For the same molecule, the IC50 ([9]; Homo sapiens, MDA-MB-468, 120 h, read-out: IC50, growth inhibition, 120 h continuous exposure, MDA-MB-468, SRB) was 0.51 µM, the IC50 ([9]; Homo sapiens, MDA-MB-468, read-out: IC50, growth inhibition, 2 h exposure followed by 120 h recovery, MDA-MB-468, SRB) was 4.81 µM and the “in vivo antiproliferative activity” value ([18]; 50 mg/kg i.p. every 3-4 days, mammary fat pad) was “strong antiproliferative activity”. The “in vivo potency compared with ZR2002” value ([18]; mouse, in vivo) was “significantly more potent” and the “in vivo potency compared with FD105” value ([18]; same dose, p<0.05) was “significant superior potency”.
